2 compounds from patent US11590129B2, “Combination therapy with an antitumor alkaloid” (PHARMA MAR, S.A., priority 2010, dated 2023) can be followed below.

Experiment [1] concerns HepG2 human hepatocellular liver carcinoma cell line. Description: MTT cytotoxicity assay in HepG2 cells: IC50 of single agents and combinations with PM01183. Format: cell-based. The conditions noted are these: Homo sapiens, HepG2, 72 h. The protocol:
(§1) a. […] Briefly, cells were harvested and seeded in 96 well microtiter plates at a density of 5,000 cells in 150 μL of culture medium and incubated for 24 hours in drug-free medium before treatment with vehicle alone or test compounds for 72 h.
(§2) The cytotoxic effect was measured by the MTT reduction assay, in which 3-(4,5-Dimethylthiazol-2-yl)-2,5-diphenyltetrazolium bromide, a tetrazole, which is reduced to purple formazan in the mitochondria of living cells, was used. MTT (50 μL of 1 mg/mL stock solution) was added to the wells and incubated for 8 hours at 37° C. until formazan crystals were formed. After gently removing the culture medium, DMSO was added to dissolve the insoluble purple formazan product into a colored solution. […] Results were expressed as percentage of control cell growth.
(§3) b. In a second set of assays, A549 human tumor cells were incubated with PM01183 in combination with each of the agents mentioned above.
(§4) As a visual aid, response values were plotted on a scatter plot with dose ratios given on the x-axis and % response values on the y-axis. […] In cases where response values at the two endpoints were approximately equivalent, points lying above or below this predicted line of additivity could be interpreted as representing antagonistic or synergistic drug interaction, respectively.
(§5) Additional serial dilutions were prepared in serum-free culture medium to achieve a final 4× concentration. Aliquots of 50 μL of each diluted compound were added per well.
HepG2 was the human hepatocellular liver carcinoma cell line selected for this assay.
For orientation: Tetrazolium assays rely on reduction of a dye to a coloured formazan, in cell work by metabolically active cells.

Experiment [2] concerns IGROV-1 human ovarian adenocarcinoma cell line. Description: cells. The following applies: Homo sapiens, IGROV-1, 72 h. The protocol:
as §1, §2, §3, §4, §5
IGROV-1 was the human ovarian adenocarcinoma cell line selected for this assay.

Experiment [3] has as its system HT-29 human colon adenocarcinoma cell line. Description: cells. The conditions noted are these: Homo sapiens, HT-29, 72 h. The protocol: as §1, §2, §3, §4, §5
HT-29 was the human colon adenocarcinoma cell line selected for this assay.

Experiment [4] has as its system MDA-MB-231 human breast adenocarcinoma cell line. Description: cells. The conditions noted are these: Homo sapiens, MDA-MB-231, 72 h. The protocol:
as §1, §2, §3, §4, §5

The subject of experiment [5] is RXF-393 human kidney carcinoma cell line. Description: cells. The following applies: Homo sapiens, RXF 393, 72 h. The protocol:
as §1, §2, §3, §4, §5

Experiment [6] has as its system A549 human lung carcinoma cell line. Description: MTT cytotoxicity assay in A549 cells: IC50 of single agents and combinations with PM01183. The experiment is classed as cell-based. The following applies: Homo sapiens, A549, 72 h. The protocol: as §5
A549 was the human lung carcinoma cell line selected for this assay.
as §1, §2, §3, §4

Experiment [7] has as its system PC-3 human prostate cancer cell line. Description: cells. The following applies: Homo sapiens, PC-3, 72 h. The protocol:
as §1, §2, §3, §4, §5
PC-3 was the human prostate adenocarcinome cell line selected for this assay.

In experiment [8] the test system is U87-MG human glioblastoma cell line. Description: cells. The following applies: Homo sapiens, U-87 MG, 72 h. The protocol: as §1, §2, §3, §4, §5
U87-MG was the human glioblastoma cell line selected for this assay.

Experiment [9] has as its system SK-MEL-2 human melanoma cell line. Description: cells. The following applies: Homo sapiens, SK-MEL-2, 72 h. The protocol:
as §1, §2, §3, §4, §5
SK-MEL-2 was the human melanoma cell line selected for this assay.

The next experiment has as its system HGC-27 tumors. Description: Human gastric tumor xenografts (HGC-27) in athymic nude mice, tumor volume % T/C. Format: in vivo. The protocol:
Female athymic nude mice (Harlan Laboratories Models, S.L. (Barcelona, Spain) were utilized for all experiments. Animals were housed in individually ventilated cages, up to ten per cage in a 12-hour light-dark cycle at 21-23° C. and 40-60% humidity. The mice were allowed free access to irradiated standard rodent diet and sterilized water. Animals were acclimated for at least 5 days prior to tumor implantation with a tumor cell suspension.
HGC-27 cells were grown at 37° C. with 5% CO2 in Iscove's modified Dulbeco's medium (IDMD).
PM01183 was provided in the form of vials of lyophilized PM01183 cake which was reconstituted with water for infusion to a concentration of 0.2 mg/mL. The PM01183 stock solution was further diluted in 5% glucose solution for injection to the dosing formulation concentrations. Cisplatin and 5-fluorouracil were provided as solutions prepared by diluting the product with 0.9% saline solution for injection to the target final concentration.
Dose level groups were administered either as single agents or in combination.
Comparison of the median tumor volume in the treatment groups (T) to the median tumor volume in the control group (T/C×100%) was used for evaluation of the antitumor efficacy.
In general terms: Xenograft models place foreign cells or tissue in a host animal.

Experiment [10] concerns HGC-27 human gastric carcinoma cell line. Description: cells. The following applies: Homo sapiens, HGC-27, 72 h. The protocol: as §1, §2, §3, §4, §5
HGC-27 was the human gastric carcinoma cell line selected for this assay.

The test system of experiment [11] is PANC-1 human pancreatic carcinoma cell line. Description: cells. The following applies: Homo sapiens, PANC-1, 72 h. The protocol: as §1, §2, §3, §4, §5
PANC-1 was the human pancreatic carcinoma cell line selected for this assay.

[12] abbreviates: 5-fluorouracil 12.5 mg/kg iv days 0,7.
The mark [13] stands for this setting: 5-fluorouracil 37.5 mg/kg iv days 0,7.
Setting [14] is: 5-fluorouracil 50.0 mg/kg iv days 0,7.

On to `O=c1[nH]cc(F)c(=O)[nH]1` [5-FU, 5-fluorouracil], for which the concentration for half-maximal inhibition (IC50) in experiment [1] was 4500 nM; in experiment [2], 90 µM; in experiment [3] it was 9 µM; in experiment [4], 90 µM; in [5] it was 300 µM; in experiment [6], 92.3 µM. Moreover, the IC50 was determined as 1000 µM in experiment [7], 1000 µM in experiment [8], 700 µM in experiment [9] and 10 µM in [10]. Moreover, the figures for the “% T/C on day 0” value in the experiment with HGC-27 tumors (setting [12]), in the experiment with HGC-27 tumors (setting [13]) and with HGC-27 tumors (setting [14]) were 100.7%, 99.4% and 100.3%, respectively. In addition, the “% T/C on day 2” value is reported as 81.7% in the experiment on HGC-27 tumors (setting [12]), 86.9% in the experiment on HGC-27 tumors (setting [13]) and 81.2% in the experiment with HGC-27 tumors (setting [14]). Also, the “% T/C on day 5” value was 101.3% in the experiment with HGC-27 tumors (setting [12]), 86.9% in the experiment on HGC-27 tumors (setting [13]) and 82.3% with HGC-27 tumors (setting [14]). For the same compound, the entries for the “% T/C on day 7” value in the experiment on HGC-27 tumors (setting [12]), in the experiment on HGC-27 tumors (setting [13]) and in the experiment on HGC-27 tumors (setting [14]) were 102.8%, 78.6% and 81.1%, respectively. Further, the “% T/C on day 9” value in the experiment on HGC-27 tumors (setting [12]) stood at 98.6%; in the experiment with HGC-27 tumors (setting [13]), 73.2%; with HGC-27 tumors (setting [14]), 75.6%. Besides, the “% T/C on day 12” value in the experiment on HGC-27 tumors (setting [12]) was 90.5%; in the experiment on HGC-27 tumors (setting [13]), 76.7%; with HGC-27 tumors (setting [14]), 69.6%. Also, the “% T/C on day 14” value with HGC-27 tumors (setting [12]) stood at 83.8%; in the experiment with HGC-27 tumors (setting [13]) it was 83.1%; with HGC-27 tumors (setting [14]), 60.7%.

In the case of `CCc1c2c(nc3ccc(OC(=O)N4CCC(N5CCCCC5)CC4)cc13)-c1cc3c(c(=O)n1C2)COC(=O)[C@]3(O)CC` [Irinotecan, irinotecan], the IC50 worked out at 1000 nM in experiment [1]; 10 µM in [2]; 9 µM in experiment [3]; 8.5 µM in experiment [4]; 14 µM in experiment [5]; 70 µM in experiment [7]. The IC50 in experiment [8] came to 7.54 µM; in experiment [9] it was 18 µM; in experiment [11] it was 90 µM; in [10], 4 µM.

A word on the IC50: it is the midpoint of a concentration-inhibition curve.
